Experimental data published in patent publication US8852876B2, “Label free biosensors and cells” (Corning Incorporated, priority 2008, dated 2014).
Entries after “also recorded” stand apart in the source; their conditions may differ. Where no end group is shown, it is not given here.

The compounds below were run on EGF-induced response of quiescent A431 cells (assay: Effect of compound pretreatment on EGF-induced DMR response). Settings: not given.
Assay type: cell-based, human
Experimental: Both A431 and CHO-K1 cells were grown in Dulbecco's modified Eagle's medium (DMEM) supplemented with 10% fetal calf serum, 100 μg/ml penicillin, and 100 μg/ml streptomycin. For cell culture, certain numbers of cells (2×10^5 to 1×10^6), either A431 or CHO-K1, were suspended in […] medium were placed in each well of a 96 well Corning Epic Biosensor microplate, and were cultured at 37° C. in air/5% CO2 for certain time until the cell density reached ˜90% and above (unless specified). The resulted cells were termed as “profilerating” cells. The “quiescent” cells were obtained by culturing the profilerating cells of desired confluencies with a medium containing no or little (˜0.1% fetal bovine serum (FBS)) for at least 16 hours.
During the assays, the cells in 100 μl medium were subject to two 25 μl HBSS buffer containing 20 mM HEPES, pH 7.4, each separated by at least 15 minutes before 50 μl stimulus-containing solution was applied. During all these steps, a parallel angular interrogation system was used to monitor the real time kinetics of cellular responses. For compound effect studies, a modified protocol was used which starts with 50 μl medium, and subject to sequential treatment: 25 μl HBSS buffer twice (each separated by at least 15 minutes), 50 μl compound solution and finally 50 μl stimulus-containing solution.

Compound | Effect of pretreatment on 32 nM EGF-induced response
C[S+]([O-])c1ccc(-c2nc(-c3ccncc3)c(-c3ccc(F)cc3)[nH]2)cc1 (stereo not drawn) [SB203580] | only led to a partial attenuation
N#CC(=C(/N)Sc1ccccc1N)/C(C#N)=C(\N)Sc1ccccc1N [U0126] | significantly compressed the amplitudes of both the P-DMR and N-DMR signals with a delayed time τ

Same assay, conditions: quiescent A431 cells; 32 nM EGF

Compound | Effect of pretreatment on 32 nM EGF-induced response
COC(=O)[C@@]1(OC)C[C@H]2O[C@]1(C)n1c3ccccc3c3c4c(c5c6ccccc6n2c5c31)C(=O)N(C)C4 [KT5823] | little effect on the response
CCCCCCOC(=O)[C@]1(O)C[C@@H]2O[C@@]1(C)n1c3ccccc3c3c4c(c5c6ccccc6n2c5c31)C(=O)NC4 [KT 5720] | little effect on the response
CCCCOc1cc(CC2CNC(=O)N2)ccc1OC (stereo not drawn) [Ro 20-1724] | None of these inhibitors had an obvious effect on the responses
Oc1ccc(-c2nc(-c3ccc(F)cc3)c(-c3ccncc3)[nH]2)cc1 [SB20219] | only led to a partial attenuation
CN(C(=O)CCCOc1ccc2[nH]c(=O)ccc2c1)C1CCCCC1 [cilostamide] | None of these inhibitors had an obvious effect on the responses
Cc1[nH]c(=O)c(C#N)cc1-c1ccncc1 [milrinone] | None of these inhibitors had an obvious effect on the responses
R(−)-rolipram | None of these inhibitors had an obvious effect on the responses

Same assay, conditions: starved A431 cells; 8 nM EGF; 30-minute pretreatment; GH 0.5 ng/ml, PD98059 0.1 mM, PP1 1 μM, wortmannin 0.1 μM, DIP 50 μM

Compound | Effect of pre-treatment on EGF-induced P-DMR and N-DMR signals
COc1cccc(-c2cc(=O)c3ccccc3o2)c1N [PD98059] | significantly reduced both the binding and DMR signals
growth hormone | significantly reduced both the binding and DMR signals

The compounds below were run on endogenous GPCRs in A431 cells (assay: DMR optical biosensor profiling of GPCR agonists). Settings: fully quiescent A431 cells.
Assay type: cell-based, human
Experimental: Human epidermoid carcinoma A431 cells (American Type Cell Culture) were grown in Dulbecco's modified Eagle's medium (DMEM) supplemented with 10% fetal bovine serum (FBS), 4.5 g/liter glucose, 2 mM glutamine, and antibiotics. ˜3-7.5×10^4 cells at passage 3 to 5 suspended in 200 μl the DMEM medium containing 10% FBS were placed in each well of a 96 well microplate. Similarly ˜1-2×10^4 cells in 50 μl the growth medium were placed in each well of a 384 well microplate. After cell seeding, the cells were cultured at 37° C. under air/5% CO2 until ˜95% confluency was reached (˜2-4 days).
A Corning® Epic™ angular interrogation system with transverse magnetic or p-polarized TM0 mode was used for all studies. Several extra actions were taken to minimize the unwanted effects. First, to minimize the bulk index changes when a compound solution is introduced, 1×HBSS buffer without any probenecid was used to dilute all the compounds, whereas the DMEM buffer only was used to starve the cells. Secondly, to facilitate the cell responses as well as to rapidly reach a steady state when the sensor plates having cells were placed in the system at room temperature, the cells were pre-starved with the DMEM buffer without any FBS for a prolonged period of time (typically 20±2 hours), and the quiescent cells were directly used for assays without any wash.
For kinetics measurements, the cultured cells (˜95% confluency) were starved for about 20 hours with DMEM alone at 37° C. under air/5% CO2. Afterwards, the sensor microplate containing cells was placed into the optical system, and the cell responses were recorded before and after addition of a solution at room temperature. […] All studies were carried out at room temperature with the lid of the microplate on except for a short period of time (˜seconds) when the solution was introduced, in order to minimize the effect of temperature fluctuation and evaporative cooling. The unit of the responses indicated herein was a change in pixel of the central position of the resonant band of each sensor as imaged by a CCD camera; 1 unit equals to ˜5.82×10^−4 refractive index changes, based on an experimental normalization protocol, which uses the concentration-dependent responses of both glycerol and dimethyl sulfoxide.
The panel of agonists were used individually to stimulate quiescent A431 cells. The dose-dependent and kinetic responses were recorded and analyzed. In a typical kinetic measurement, the angular shift of resonant lights of each sensor induced by an agonist is monitored in real time and plotted as a function of time. An increased signal (P-DMR) means an increase in the amount of bio-molecules within the sensing volume (˜120 nm); conversely, a decreased signal (N-DMR) means a decrease in the amount of bio-molecules within the sensing volume. The sensing volume, also known as penetration depth, is an intrinsic property of the coupled light within the waveguide film, which creates an evanescent wave extending into the cell layer and the medium.

Compound | Dose-dependent switching of optical signature
CC(CCCCC(=O)Nc1ccc(C(F)(F)F)cc1)NCCc1cnc[nH]1 (stereo not drawn) [HTMT] | At low doses (<˜40 nM), HTMT dose-dependently resulted in a typical Gi-type optical signature; also recorded: became almost steady (i.e., no obvious DMR); also recorded: switching to a typical Gs-type optical signature
oleoyl-L-α-lysophosphatidic acid [LPA] | typical Gi-type optical signature at low doses of LPA; also recorded: switched to Gq-type optical signature at high doses of LPA

Same assay, conditions: quiescent A431; first class = Gq-type, second = Gs-type, third = Gi-type, fourth = no significant DMR

Compound | Class of optical signature (DMR) induced by agonist
NC[C@@H]1O[C@H](C23CC4CC(CC(C4)C2)C3)Cc2c1ccc(O)c2O [A-77636] | did not exhibited any significant DMR signals
CN1CCC(c2c[nH]c3ccc(O)cc23)CC1 [BRL 54443] | did not exhibited any significant DMR signals
C[C@@H](NC(=O)[C@@H](N)Cc1ccc(O)cc1)C(=O)NCC(=O)N(C)[C@@H](Cc1ccccc1)C(=O)NCCO [DAMGO] | did not exhibited any significant DMR signals
Oc1cc2c(cc1O)C(c1ccccc1)CNCC2 (stereo not drawn) [SKF38392] | did not exhibited any significant DMR signals
Brc1c(NC2=NCCN2)ccc2nccnc12 [UK14304] | did not exhibited any significant DMR signals
CCCCC/C=C\C/C=C\C/C=C\C/C=C\CCCC(=O)NCCO [anandamide] | did not exhibited any significant DMR signals
CNC[C@H](O)c1ccc(O)c(O)c1 [epinephrine] | second class of optical signatures
CC(C)NCC(O)c1ccc(O)c(O)c1 (stereo not drawn) [isoprenternol] | second class of optical signatures
CC[C@H](C)[C@H](NC(=O)[C@@H]1CCCN1C(=O)[C@@H](NC(=O)[C@@H](N)Cc1ccccc1)C(C)C)C(=O)N[C@@H](Cc1ccccc1)C(=O)N[C@H](C(=O)N[C@@H](Cc1ccc(O)cc1)C(=O)NCC(=O)N[C@@H](CCC(=O)O)C(=O)N[C@@H](CC(C)C)C(=O)N[C@@H](CCC(N)=O)C(=O)N[C@@H](CCCNC(=N)N)C(=O)N[C@@H](CCSC)C(=O)N[C@@H](CCC(N)=O)C(=O)N[C@@H](CCC(=O)O)C(=O)N[C@@H](CCCCN)C(=O)N[C@@H](CCC(=O)O)C(=O)N[C@@H](CCCNC(=N)N)C(=O)N[C@@H](CC(N)=O)C(=O)N[C@@H](CCCCN)C(=O)NCC(=O)N[C@@H](CCC(N)=O)C(=O)O)[C@@H](C)O [motilin] | did not exhibited any significant DMR signals
Cc1cc(C(C)(C)C)c(O)c(C)c1CC1=NCCN1 [oxymetazoline] | did not exhibited any significant DMR signals
Angiotensin II (DRVYIHPF; Angiotensin-2; UniProt P01019 25-32, looked up) [agonist, AGTR1] | did not exhibited any significant DMR signals
apelin 1-13 | did not exhibited any significant DMR signals
apelin 1-17 | did not exhibited any significant DMR signals
dynorphin A (YGGFLRRIRPKLKWDNQ; Dynorphin A(1-17); UniProt P01213 207-223, looked up) [agonist, OPRM1 and OPRK1] | did not exhibited any significant DMR signals
endothelin-1 (CSCSSLMDKECVYFCHLDIIW; ends and bridges not checked; cysteine pairing not given here; UniProt P05305 53-73, looked up) [agonist, EDNRA and EDNRB] | did not exhibited any significant DMR signals
glucagon | did not exhibited any significant DMR signals
interferon-γ-inducible protein-10 [IP-10] | did not exhibited any significant DMR signals
interleukin-8 | did not exhibited any significant DMR signals
neurokinin A (HKTDSFVGLM; ends and bridges not checked; UniProt P20366 98-107, looked up) [agonist, TACR2] | did not exhibited any significant DMR signals
neuromedin N (IPYIL; Neuromedin N; UniProt P30990 144-148, looked up) [agonist, NTSR1] | did not exhibited any significant DMR signals
neuropeptide Y | did not exhibited any significant DMR signals
oleoyl-L-α-lysophosphatidic acid [LPA] | third class of optical signatures
substance P (RPKPQQFFGLM; ends and bridges not checked; UniProt P20366 58-68, looked up) [agonist, TACR1] | did not exhibited any significant DMR signals
